Reference: patent US9488664B2, “Diagnostic agent for tumor” (SBI Pharmaceuticals Co., Ltd., priority 2012, dated 2016)

Assay: Side effects (stomach discomfort, nausea) in individuals given 5-ALA
Format: in vivo, human
Description: A total of eight individuals including seven healthy volunteers in whom no particular abnormality was found by health examination and the like and one volunteer with a malignant tumor, who was given a diagnosis of cancer by a doctor, were studied. The average body weight of the volunteers was 50 kg. The volunteers were instructed to ingest one capsule encapsulating 100 mg of 5-ALA before sleep and collect the first urine at the time of wake-up. Also, they were instructed to ingest, on another day, three capsules, each encapsulating 100 mg of 5-ALA, before sleep and collect the first urine at the time of wake-up.
From the above results, it was shown that administration at a dose of 300 mg can distinguish between not only the presence and absence of a tumor, but also a malignant tumor and a benign tumor. Also, it was shown that a malignant tumor can be detected by administering 100 mg of 5-ALA.
A total of 10 individuals including five healthy volunteers in whom no particular abnormality was found by health examination and the like and five volunteers with a malignant tumor, who were given a diagnosis of cancer by a doctor, ingested 1 g of 5-ALA. […]

NCC(=O)CCC(=O)O [5-ALA, 5-aminolevulinic acid]
stomach discomfort and nausea (100 mg and 300 mg 5-ALA oral, eight individuals): neither stomach discomfort nor nausea was observed | stomach discomfort and nausea (1 g 5-ALA ingested, 10 individuals): some of the volunteers developed stomach discomfort and nausea
